Assay results from patent US12514251B2, “Fused heterocyclic compounds and their use as pest control agents” (priority 2020, dated 2026).

These compounds were tested on Plutella xylostella (assay: Plutella xylostella, leaf dip method). Conditions: foliar, cabbage leaf dip, second instar larvae, 72 h after release, dead + moribund vs untreated control, read-out: percent mortality.
Type: in vivo
Procedure: The leaf dip method was used for testing, wherein the required quantity of the compound was weighed and dissolved in a tube containing solvent solution. The tube was put on a vortex at 2000 rpm for 90 min for proper mixing, then diluted with 0.01% Triton-X solution to get the desired test concentration. Cabbage leaves were dipped in the compound solution for 10 seconds, shade dried for 20 min and then transferred into the cells of bioassay trays. A single second instar larva was released into each cell and the tray was covered with a lid. The bio-assay trays were then kept under laboratory conditions at a temperature of 25° C. and a relative humidity of 70%. Observations on dead, moribund and alive larvae were recorded 72 h after the release. Percent mortality was calculated by combining dead and moribund larvae and comparing the result to the one of the untreated control.

| SMILES | mortality at 300 ppm [%] |
| --- | --- |
| CCS(=O)(=O)c1cc(OCC2CC2)cnc1-c1ccn2nc(C(F)(F)F)nc2n1 [Compound 161, 5-(5-(cyclopropylmethoxy)-3-(ethylsulfonyl)pyridin-2-yl)-2-(trifluoromethyl)-[1,2,4]triazolo[1,5-a]pyrimidine] | ≥ 70 |
| CCS(=O)(=O)c1cc(-c2ccc(Cl)c(F)c2)cnc1-c1ccn2nc(C(F)(F)F)nc2n1 [Compound 162, 5-(5-(4-chloro-3-fluorophenyl)-3-(ethylsulfonyl)pyridin-2-yl)-2-(trifluoromethyl)-[1,2,4]triazolo[1,5-a]pyrimidine] | ≥ 70 |
| CCS(=O)(=O)c1cc(C)cnc1-c1ccn2nc(C(F)(F)F)cc2n1 [Compound 164, 5-(3-(ethylsulfonyl)-5-methylpyridin-2-yl)-2-(trifluoromethyl)pyrazolo[1,5-a]pyrimidine] | ≥ 70 |
| CCS(=O)(=O)c1cc(NC2CC2)cnc1-c1ccn2nc(C(F)(F)F)cc2n1 [Compound 170, N-cyclopropyl-5-(ethylsulfonyl)-6-(2-(trifluoromethyl)pyrazolo[1,5-a]pyrimidin-5-yl)pyridin-3-amine] | ≥ 70 |
| CCS(=O)(=O)c1ccc(C2CC2)nc1-c1ccn2nc(C(F)(F)F)cc2n1 [Compound 171, 5-(6-cyclopropyl-3-(ethylsulfonyl)pyridin-2-yl)-2-(trifluoromethyl)pyrazolo[1,5-a]pyrimidine] | ≥ 70 |
| CC#Cc1ccc(S(=O)(=O)CC)c(-c2ccn3nc(C(F)(F)F)cc3n2)n1 [Compound 173, 5-(3-(ethylsulfonyl)-6-(prop-1-yn-1-yl)pyridin-2-yl)-2-(trifluoromethyl)pyrazolo[1,5-a]pyrimidine] | ≥ 70 |
| CCS(=O)(=O)c1ccc(N(C)C2CC2)nc1-c1ccn2nc(C(F)(F)F)nc2n1 [Compound 176, N-cyclopropyl-5-(ethylsulfonyl)-N-methyl-6-(2-(trifluoromethyl)-[1,2,4]triazolo[1,5-a]pyrimidin-5-yl)pyridin-2-amine] | ≥ 70 |
| CCS(=O)(=O)c1cc(-n2cnc(Br)n2)cnc1-c1ccn2nc(C(F)(F)F)cc2n1 [Compound 177, 5-(5-(3-bromo-1H-1,2,4-triazol-1-yl)-3-(ethylsulfonyl)pyridin-2-yl)-2-(trifluoromethyl)pyrazolo[1,5-a]pyrimidine] | ≥ 70 |
| CC#Cc1cnc(-c2ccn3nc(C(F)(F)F)cc3n2)c(S(=O)(=O)CC)c1 [Compound 178, 5-(3-(ethylsulfonyl)-5-(prop-1-yn-1-yl)pyridin-2-yl)-2-(trifluoromethyl)pyrazolo[1,5-a]pyrimidine] | ≥ 70 |
| CCS(=O)(=O)c1ccc(C2CC2)nc1-c1ccn2nc(C(F)(F)F)nc2n1 [Compound 180, 5-(6-cyclopropyl-3-(ethylsulfonyl)pyridin-2-yl)-2-(trifluoromethyl)-[1,2,4]triazolo[1,5-a]pyrimidine] | ≥ 70 |
| CCSc1ccc(C)nc1-c1ccn2nc(C(F)(F)F)cc2n1 [Compound 181, 5-(3-(ethylthio)-6-methylpyridin-2-yl)-2-(trifluoromethyl)pyrazolo[1,5-a]pyrimidine] | ≥ 70 |
| CCS(=O)(=O)c1ccc(C)nc1-c1ccn2nc(C(F)(F)F)nc2n1 [Compound 183, 5-(3-(ethylsulfonyl)-6-methylpyridin-2-yl)-2-(trifluoromethyl)-[1,2,4]triazolo[1,5-a]pyrimidine] | ≥ 70 |
| CCSc1ccc(C)nc1-c1ccn2nc(C(F)(F)F)nc2n1 [Compound 187, 5-(3-(ethylthio)-6-methylpyridin-2-yl)-2-(trifluoromethyl)-[1,2,4]triazolo[1,5-a]pyrimidine] | ≥ 70 |
| CCSc1cc(C2CC2)cnc1-c1ccn2nc(C(F)(F)F)cc2n1 [Compound 189, 5-(5-cyclopropyl-3-(ethylthio)pyridin-2-yl)-2-(trifluoromethyl)pyrazolo[1,5-a]pyrimidine] | ≥ 70 |
| CCSc1cc(-c2ccc(F)cc2)cnc1-c1ccn2nc(C(F)(F)F)cc2n1 [Compound 190, 5-(3-(ethylthio)-5-(4-fluorophenyl)pyridin-2-yl)-2-(trifluoromethyl)pyrazolo[1,5-a]pyrimidine] | ≥ 70 |
| CCSc1cc(-c2ccc(OC(F)(F)C(F)F)cc2)cnc1-c1ccn2nc(C(F)(F)F)cc2n1 [Compound 191, 5-(3-(ethylthio)-5-(4-(1,1,2,2-tetrafluoroethoxy)phenyl)pyridin-2-yl)-2-(trifluoromethyl)pyrazolo[1,5-a]pyrimidine] | ≥ 70 |
| CCS(=O)(=O)c1cc(C=C(C)C)cnc1-c1ccn2nc(C(F)(F)F)cc2n1 [Compound 201, 5-(3-(ethylsulfonyl)-5-(2-methylprop-1-en-1-yl)pyridin-2-yl)-2-(trifluoromethyl)pyrazolo[1,5-a]pyrimidine] | ≥ 70 |
| CCc1ccc(S(=O)(=O)CC)c(-c2ccn3nc(C(F)(F)F)cc3n2)n1 [Compound 209, 5-(6-ethyl-3-(ethylsulfonyl)pyridin-2-yl)-2-(trifluoromethyl)pyrazolo[1,5-a]pyrimidine] | ≥ 70 |

| SMILES | mortality at 300 ppm [%] |
| --- | --- |
| CCS(=O)(=O)c1ccc(C=C(C)C)nc1-c1ccn2nc(C(F)(F)F)cc2n1 [Compound 210, 5-(3-(ethylsulfonyl)-6-(2-methylprop-1-en-1-yl)pyridin-2-yl)-2-(trifluoromethyl)pyrazolo[1,5-a]pyrimidine] | ≥ 70 |
| CCc1cnc(-c2ccn3nc(C(F)(F)F)cc3n2)c(S(=O)(=O)CC)c1 [Compound 211, 5-(5-ethyl-3-(ethylsulfonyl)pyridin-2-yl)-2-(trifluoromethyl)pyrazolo[1,5-a]pyrimidine] | ≥ 70 |
| C=Cc1cnc(-c2ccn3nc(C(F)(F)F)cc3n2)c(S(=O)(=O)CC)c1 [Compound 212, 5-(3-(ethylsulfonyl)-5-vinylpyridin-2-yl)-2-(trifluoromethyl)pyrazolo[1,5-a]pyrimidine] | ≥ 70 |
| CCS(=O)(=O)c1cc(C2CCC2)cnc1-c1ccn2nc(C(F)(F)F)cc2n1 [Compound 213, 5-(5-cyclobutyl-3-(ethylsulfonyl)pyridin-2-yl)-2-(trifluoromethyl)pyrazolo[1,5-a]pyrimidine] | ≥ 70 |
| CCS(=O)(=O)c1ccc(/C=C/C2CC2)nc1-c1ccn2nc(C(F)(F)F)cc2n1 [Compound 216, (E)-5-(6-(2-cyclopropylvinyl)-3-(ethylsulfonyl)pyridin-2-yl)-2-(trifluoromethyl)pyrazolo[1,5-a]pyrimidine] | ≥ 70 |
| CCS(=O)(=O)c1ccc(CC#N)nc1-c1ccn2nc(C(F)(F)F)cc2n1 [Compound 217, 2-(5-(ethylsulfonyl)-6-(2-(trifluoromethyl)pyrazolo[1,5-a]pyrimidin-5-yl)pyridin-2-yl)acetonitrile] | ≥ 70 |
| CCS(=O)(=O)c1cc(NC)cnc1-c1ccn2nc(C(F)(F)F)cc2n1 [Compound 218, 5-(ethylsulfonyl)-N-methyl-6-(2-(trifluoromethyl)pyrazolo[1,5-a]pyrimidin-5-yl)pyridin-3-amine] | ≥ 70 |
| CCS(=O)(=O)c1cc(NC(=O)OC(C)(C)C)cnc1-c1ccn2nc(C(F)(F)F)cc2n1 [Compound 222, tert-butyl (5-(ethylsulfonyl)-6-(2-(trifluoromethyl)pyrazolo[1,5-a]pyrimidin-5-yl)pyridin-3-yl)carbamate] | ≥ 70 |
| CCS(=O)(=O)c1cc(N)cnc1-c1ccn2nc(C(F)(F)F)cc2n1 [Compound 223, 5-(ethylsulfonyl)-6-(2-(trifluoromethyl)pyrazolo[1,5-a]pyrimidin-5-yl)pyridin-3-amine] | ≥ 70 |
| CCS(=O)(=O)c1ccc(OC)nc1-c1ccn2nc(C(F)(F)F)cc2n1 [Compound 226, 5-(3-(ethylsulfonyl)-6-methoxypyridin-2-yl)-2-(trifluoromethyl)pyrazolo[1,5-a]pyrimidine] | ≥ 70 |
| CCOc1ccc(S(=O)(=O)CC)c(-c2ccn3nc(C(F)(F)F)cc3n2)n1 [Compound 227, 5-(6-ethoxy-3-(ethylsulfonyl)pyridin-2-yl)-2-(trifluoromethyl)pyrazolo[1,5-a]pyrimidine] | ≥ 70 |
| CCS(=O)(=O)c1cc(N(C)C)cnc1-c1ccn2nc(C(F)(F)F)cc2n1 [Compound 230, 5-(ethylsulfonyl)-N,N-dimethyl-6-(2-(trifluoromethyl)pyrazolo[1,5-a]pyrimidin-5-yl)pyridin-3-amine] | ≥ 70 |
| CCS(=O)(=O)c1cc(CC#N)cnc1-c1ccn2nc(C(F)(F)F)cc2n1 [Compound 232, 2-(5-(ethylsulfonyl)-6-(2-(trifluoromethyl)pyrazolo[1,5-a]pyrimidin-5-yl)pyridin-3-yl)acetonitrile] | ≥ 70 |
| CCS(=O)(=O)c1cc(NC(=O)C2CC2)cnc1-c1ccn2nc(C(F)(F)F)cc2n1 [Compound 233, N-(5-(ethylsulfonyl)-6-(2-(trifluoromethyl)pyrazolo[1,5-a]pyrimidin-5-yl)pyridin-3-yl)cyclopropanecarboxamide] | ≥ 70 |
| CCS(=O)(=O)c1ccc(O)nc1-c1ccn2nc(C(F)(F)F)cc2n1 [Compound 236, 5-(ethylsulfonyl)-6-(2-(trifluoromethyl)pyrazolo[1,5-a]pyrimidin-5-yl)pyridin-2-ol] | ≥ 70 |
| CCS(=O)(=O)c1ccc(C(C)C)nc1-c1ccn2nc(C(F)(F)F)cc2n1 [Compound 238, 5-(3-(ethylsulfonyl)-6-isopropylpyridin-2-yl)-2-(trifluoromethyl)pyrazolo[1,5-a]pyrimidine] | ≥ 70 |
| CCS(=O)(=O)c1ccc(OCC(F)(F)F)nc1-c1ccn2nc(C(F)(F)F)cc2n1 [Compound 239, 5-(3-(ethylsulfonyl)-6-(2,2,2-trifluoroethoxy)pyridin-2-yl)-2-(trifluoromethyl)pyrazolo[1,5-a]pyrimidine] | ≥ 70 |
